Source: ChEMBL document CHEMBL1201862, “PubChem BioAssay data set” (2004)
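A five-concentration, 48-hour dose response in 96-well plates underlies each endpoint, interpolated linearly between surrounding concentrations. Here, GI50 denotes the concentration required for 50% inhibition of growth.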 Active and inactive are the calls of the source. Rule as the data show it: active = GI50 up to about 1.1 µM and inactive = higher.

Legend:
Assay in all cases: DTP human tumour cell line panel, 48 h
[1] = tested on: IGROV-1
[2] = tested on: SF-539
[3] = tested on: SK-MEL-5
[4] = tested on: SR
[5] = tested on: HCT-116
[6] = tested on: SK-MEL-28
[7] = tested on: K562
[8] = tested on: SK-MEL-2
[9] = tested on: NCI-H226
[10] = tested on: SW-620
[11] = tested on: RXF 393
[12] = tested on: Malme-3M
[13] = tested on: SK-OV-3
[14] = tested on: TK-10
[15] = tested on: NCI-H460
[16] = tested on: HOP-62
[17] = tested on: HOP-92
[18] = tested on: OVCAR-4
[19] = tested on: SF-268
[20] = tested on: LOX IMVI

Measured: GI50

CCCN1C(=O)CN(S(=O)(=O)c2ccc(Cl)cc2)C1=O
inactive: [1] > 100 µM | [2] > 100 µM | [3] > 100 µM | [4] 71 µM | [5] > 100 µM | [6] > 100 µM | [7] > 100 µM | [8] > 100 µM | [9] > 100 µM | [10] > 100 µM | [11] > 100 µM | [12] > 100 µM | [13] > 100 µM | [14] > 100 µM | [15] > 100 µM | [16] > 100 µM | [17] > 100 µM | [18] > 100 µM | [19] > 100 µM | [20] > 100 µM

C/C(=C1/N=C(c2ccccc2)OC1=O)c1cccs1
inactive: [1] 63.7 µM | [2] > 100 µM | [3] > 100 µM | [4] > 100 µM | [5] > 100 µM | [6] > 100 µM | [7] > 100 µM | [8] > 100 µM | [9] > 100 µM | [10] > 100 µM | [11] > 100 µM | [12] > 100 µM | [13] > 100 µM | [14] > 100 µM | [15] > 100 µM | [16] 55 µM | [17] > 100 µM | [18] 37.3 µM | [19] > 100 µM | [20] > 100 µM

O=C(NCCCCCCNC(=O)n1cc(F)c(=O)[nH]c1=O)NCCCOCCOCCOCCOCCOCCOCCOCCOCCOCCOCCOCCOCCOCCOCCOCCOCCOCCOCCOCCOCCOCCCNC(=O)C(O)C(O)C(OC1OC(CO)C(O)C(O)C1O)C(O)CO (stereo not given)
inactive: [1] 33.7 µM | [2] 1.67 µM | [3] 20.5 µM | [4] 16 µM | [5] 9.16 µM | [6] 29.1 µM | [7] 52.4 µM | [8] > 100 µM | [9] > 77.3 µM | [10] 64.7 µM | [11] 80.9 µM | [12] 35.8 µM | [13] > 86.9 µM | [14] > 100 µM | [15] 3.58 µM | [16] 20.6 µM | [17] > 100 µM | [18] 29.6 µM | [19] 75.5 µM | [20] 18.9 µM

C=CC[C@H](C[C@H](C[C@H](C[C@H](C[C@H](C[C@H](C[C@H](C[C@H](C[C@H](C[C@H](CCCCC)OC)OC)OC)OC)OC)OC)OC)OC)OC)OC
inactive: [1] > 100 µM | [2] > 100 µM | [3] 52.7 µM | [4] 36.6 µM | [5] 82.6 µM | [6] > 100 µM | [7] 70.3 µM | [8] > 100 µM | [9] 62.2 µM | [10] > 100 µM | [11] 66.4 µM | [12] > 100 µM | [13] > 100 µM | [14] > 100 µM | [15] > 100 µM | [16] > 100 µM | [17] > 100 µM | [18] > 100 µM | [19] > 100 µM | [20] > 100 µM

O=C(C(=O)N1CCc2ccccc21)c1c[nH]c2ccccc12
inactive: [1] > 10 µM | [2] > 10 µM | [3] > 10 µM | [4] > 10 µM | [5] > 10 µM | [6] > 10 µM | [7] > 10 µM | [8] > 10 µM | [9] > 10 µM | [10] > 10 µM | [11] > 10 µM | [12] > 10 µM | [13] > 10 µM | [14] > 10 µM | [15] > 10 µM | [16] > 10 µM | [17] > 10 µM | [18] > 10 µM | [19] > 10 µM | [20] > 10 µM
